Experimental data from patent publication US20210308143A1, “COMPOSITIONS AND METHODS FOR REDUCING BODY FAT” (Topokine Therapeutics, Inc., priority 2006, published 2021).
Entries after “also recorded” stand apart in the source; their conditions may differ.

Tests used:
[1] = test system: 3T3-L1 preadipocytes and mature adipocytes; experiment: MTS test for cell viability; format: cell-based, mouse
Protocol: (§1) Preparation of preadipocytes. 3T3-L1 mouse embryo fibroblasts are obtained and cultured. Cells are cultured at 37° C. in a humidified 5% CO2 atmosphere and grown in Dulbecco's modified Eagle's medium (DMEM) with 10% bovine calf serum. Confluency is induced for 2 days (Days −1 and 0) and preadipocytes are cultured in DMEM with 10% fetal bovine serum (FBS/DMEM) medium, supplemented with 167 nM insulin, […] isobutylmethylxanthine, and 1 μM dexamethasone for 2 days (Days 1 and 2).
Preparation (induction) of mature adipocytes from preadipocytes. Preadipocytes prepared as above are then maintained in a culture medium with 167 nM insulin supplement for another 2 days (Days 3 and 4), followed by culturing with 10% FBS/DMEM medium for an additional 4 days (Days 5-8), at which time >90% of the cells are expected to have differentiated and matured into adipocytes with accumulated fat droplets. All media contains 100 U/mL penicillin, 100 μg/mL streptomycin, and 292 μg of L-glutamine/mL. […]
Test for cell viability. […] The plate is analyzed by spectrometry at a wavelength of 490 nm, which is an absorbance peak for formazan. The quantity of formazan as measured by absorbance at 490 nm is a directly proportional to the number of viable cells.

[2] = test system: mature adipocytes (from 3T3-L1); experiment: Laser scanning cytometry (annexin V/PI) test for apoptosis; format: cell-based, mouse; settings: 24 hours
Protocol: as §1
(§2) Preparation (induction) of mature adipocytes from preadipocytes. Preadipocytes prepared as above are then maintained in a culture medium with 167 nM insulin supplement for another 2 days (Days 3 and 4), followed by culturing with 10% FBS/DMEM medium for an additional 4 days (Days 5-8), at which time >90% of the cells are expected to have differentiated and matured into adipocytes with accumulated fat droplets. All media contains 100 U/mL penicillin, 100 μg/mL streptomycin, and 292 μg of L-glutamine/mL.
All experiments, except where otherwise indicated, are performed with bimatoprost added to the culture medium for a final concentration of 0%, 0.003%, 0.03%, or 0.3% for a duration of 3, 6, 12, or 24 hours [with 1:1000 dimethyl sulfoxide (DMSO)]. […]
Test for apoptosis (1). […] Apoptotic cells fluoresce and are detected by LSC, since AV binds specifically to phosphatidylserine in the disrupted plasma membrane. […]

[3] = test system: 3T3-L1 preadipocytes and mature adipocytes; experiment: TUNEL imaging test for apoptosis; format: cell-based, mouse
Protocol: as §1, §2
Test for apoptosis (2). Terminal Deoxynucleotidyl Transferase dUTP Nick-End Labeling (TUNEL) Imaging is one of the most common assays for apoptosis. […] Apoptosis manifests as fluorescence upon microscopic examination, which reflects the antibody-labeled BrdU incorporated at the cleaved portions of DNA.

3T3-L1 preadipocytes = experiment: Oil-Red-O test for differentiation of preadipocytes into mature adipocytes; format: cell-based, mouse
Protocol: as §1, §2
Test for differentiation of preadipocytes into mature adipocytes. Oil-Red-O, a specific lipid stain, is used to test the effect of bimatoprost on adipogenesis. […] For each dish, multiple images are taken and analyzed for average lipid droplet size, percentage lipid area, and total droplet number with software. […]

[4] = test system: laboratory rodents (hairless rats or nude mice); experiment: In vivo rodent study, daily topical ointment on abdominal skin; settings: daily topical ointment 0.003-0.3%, six months
Protocol: Animal preparation. Genetically uniform laboratory rodents (for example, hairless rats or nude mice) are used. They are adult laboratory rodents similar in size at the commencement of the study (approximately postnatal week 15 for rats). Multiple animals are tested. Animals randomized to bimatoprost are housed separately from control animals but are kept in the same room under identical environmental conditions. All animals are fed a standard diet, appropriate for the species, ad libidum.
Method. In all cases the vehicle is a compatible ointment, such as petrolatum, with a final bimatoprost concentration of 0%, 0.003%, 0.03%, or 0.3%. A fixed amount of ointment, for example 1 gram, is applied daily in a thin film over a uniform surface area of the abdominal skin of each animal. Each animal is randomized to a daily application of a dose of topical bimatoprost or vehicle alone. On a weekly basis, total body mass of each animal is determined on a scale. Total body fat is estimated by any of the several methods established for this purpose, for example, water displacement (Dahms et al. (1982) J NUTR. 112: 398-400), isotopic dilution (Culebras et al. (1977) J. PHYSIOL. 232: R60-65), Total Body Electrical Conductance (TOBEC) (Baer et al. (1993) PHYSIOL. BEHAV. 53: 1195-99), Dual-Energy X-Ray Absorptiometry (DEXA) (Bertin et al. (1998) J NUTRITION 128: 1550-54), or Nuclear Magnetic Resonance (NMR) (Kunnecke et al. (2004) OBES RES. 12: 1604-151. Animals are maintained and monitored in this fashion for six months, at which point they are sacrificed.
Analysis and Results. Abdominal fat pads of the sacrificed animals are excised and measured directly for mass and volume. Direct carcass analysis with chemical extraction may be further performed (Frisch et al. (1977) PNAS 74: 379-383). All results are normalized with reference to baseline values and then compared between bimatoprost and control groups.

human subjects = experiment: In vivo human randomized double-blind study, topical ointment over triceps; settings: daily petrolatum ointment 0.003-0.3%, 6 months
Description: Multiple human subjects (both male and female), for example, with body mass indices of 30 or more but otherwise healthy, are entered into a randomized double-blind study. Either the left or the right arm is randomized to receive topical bimatoprost; the other arm receives vehicle only. Bimatoprost is supplied in a petrolatum-based ointment (the vehicle) at a final concentration of 0%, 0.003%, 0.03% or 0.3%. Ointment containers are unlabeled as to the presence or concentration of bimatoprost. Each day, subjects apply a thin film of ointment to the skin over the respective triceps while wearing new, clean surgical gloves. Subjects are instructed to refrain from washing the treated area for at least 8 hours and are instructed to refrain from wearing tight clothing or occlusive dressings that will come into contact with the treated area. Body fat calipers are used to measure fat in the triceps region bilaterally on a weekly basis. The study continues for 6 months. […] As a result, this contemplated outcome will show, in vivo, that compounds according to the present invention, including bimatoprost, can reduce fat.

human patients = experiment: Clinical application examples (Examples 4-8), local bimatoprost to reduce fat deposits; format: in vivo; settings: for fat pad between shoulders / fatty deposits on cheeks: daily ointment to face and between shoulders
Description: In light of the foregoing description, the specific non-limiting examples presented below are for illustrative purposes and not intended to limit the scope of the invention in any way. In Examples 4-8, various modes of non-systemic administration of a cyclopentane heptanoic acid, 2-arylalkyl or cycloalkyl compound or derivative thereof can be used, for example, by topical application (ointment, cream, or transdermal patch), subcutaneous injection, intramuscular injection, or intralesional injection, any of which may involve a controlled (or sustained) release formulation or depot. In addition to medical therapy, the person's physician recommends a regimen of diet and exercise. After six months the person is unable to lose weight. The physician prescribes daily topical application of a bimatoprost ointment to the abdomen as treatment for central obesity. […] The person's physician prescribes a daily application of a bimatoprost ointment to the face and between the shoulders as treatment for the fat deposits. […] The person's physician prescribes a daily application of a bimatoprost ointment to the face and between the shoulders as treatment for the fat deposits. […] The plastic surgeon prescribes a daily application of a bimatoprost ointment to the hips and thighs as treatment for the fat deposits. […] The doctor prescribes an ophthalmic preparation of bimatoprost daily to both eyes as a treatment for the proptosis and exposure symptoms.

human eye = settings: eyedrops, glaucoma, cited from earlier work
[5] = preadipocytes and/or mature adipocytes
[6] = Example 4, obese person, daily ointment to abdomen
[7] = Example 5, Cushing syndrome secondary to prednisone
[8] = Example 6, HIV-related lipodystrophy
[9] = Example 8, Grave's disease orbitopathy, ophthalmic preparation daily to both eyes

## CCNC(=O)CCC/C=C\C[C@@H]1[C@@H](/C=C/[C@@H](O)CCc2ccccc2)[C@H](O)C[C@@H]1O [bimatoprost, cyclopentane N-ethyl heptenamide-5-cis-2-(3α-hydroxy-5-phenyl-1-trans-pentenyl)-3,5-dihydroxy, [1α, 2β, 3α, 5α]]
[1]; bimatoprost 0.003%, 0.03% or 0.3%, up to 24 hours, vs DMSO control
  absorbance at 490 nm on MTS testing, treated cells compared to control cells: lower absorbance at 490 nm
[1]; [5]
  rates of viability compared to control samples: lower rates of viability
[2]
  AV-labeled and/or PI-labeled cells on laser scanning cytometry compared to control samples: more AV-labeled and/or PI-labeled (apoptotic or dead) cells
[3]; preadipocytes and mature adipocytes, 24 hours
  BrdU-antibody-labeled cells on TUNEL imaging compared to control samples: more BrdU-antibody-labeled (fluorescent) cells
[3]; [5]
  rates of apoptosis compared to control samples: higher rates of apoptosis
3T3-L1 preadipocytes; bimatoprost 0.003%, 0.03%, and 0.3% μM added with induction medium
  lipid droplets on Oil-Red-O staining compared to control samples: smaller and fewer lipid droplets
3T3-L1 preadipocytes; preadipocytes
  rates of differentiation into mature adipocytes compared to control samples: lower rates of differentiation into mature adipocytes
[4]
  subcutaneous (abdominal) fat mass compared to control animals: lower subcutaneous (abdominal) fat mass
  total body fat mass compared to control animals: lower total body fat mass
  total body mass compared to control animals: lower total body mass
Human subjects
  fat in treated body area (triceps, calipers) compared to vehicle-treated area: lower fat
Human patients; [6]
  BMI: BMI is reduced
  abdominal fat deposits: abdominal fat deposits are reduced
Human patients; [7]
  fat pad between shoulders: fat pad between their shoulders is reduced
  fatty deposits on cheeks: fatty deposits on the person's cheeks are reduced
Human patients; [8]
  fat pad between shoulders: fat pad between their shoulders is reduced
  fatty deposits on cheeks: fatty deposits on the person's cheeks are reduced
Human patients; Example 7, daily ointment to hips and thighs
  fatty deposits on hips and/or thighs: fatty deposits on the person's hips and/or thighs are reduced
Human patients; [9]
  condition (proptosis and exposure symptoms): their condition improves
  orbital fat: orbital fat is reduced
Human eye; Peplinski et al. (2004)
  unwanted side-effects: periocular pigmentary changes involving the eyelid; also recorded: deepening of the lid sulcus
Human eye
  intraocular pressure: decrease intraocular pressure
